# Assay results taken from ChEMBL document CHEMBL1131507, “Arylpiperazines with serotonin-3 antagonist activity: a comparative molecular field analysis” (J Med Chem, 1998).
# Molecular target: T1, Serotonin 3 (5-HT3) receptor (Rattus norvegicus, UniProt P35563+Q9JJ16)
# T1 sequence (P35563 whole entry): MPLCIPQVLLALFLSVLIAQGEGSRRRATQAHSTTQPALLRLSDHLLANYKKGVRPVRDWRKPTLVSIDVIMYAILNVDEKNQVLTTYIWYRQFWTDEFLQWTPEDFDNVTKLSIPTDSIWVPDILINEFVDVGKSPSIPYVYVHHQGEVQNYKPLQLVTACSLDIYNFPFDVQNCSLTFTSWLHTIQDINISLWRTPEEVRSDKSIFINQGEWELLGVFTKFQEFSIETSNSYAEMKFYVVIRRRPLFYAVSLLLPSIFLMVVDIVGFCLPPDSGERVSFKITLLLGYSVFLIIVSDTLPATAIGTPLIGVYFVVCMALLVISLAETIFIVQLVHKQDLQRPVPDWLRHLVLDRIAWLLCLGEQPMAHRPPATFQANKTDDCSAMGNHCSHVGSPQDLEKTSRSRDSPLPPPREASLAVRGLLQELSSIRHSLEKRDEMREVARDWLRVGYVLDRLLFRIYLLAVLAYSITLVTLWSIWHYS
# T1 sequence (Q9JJ16 whole entry): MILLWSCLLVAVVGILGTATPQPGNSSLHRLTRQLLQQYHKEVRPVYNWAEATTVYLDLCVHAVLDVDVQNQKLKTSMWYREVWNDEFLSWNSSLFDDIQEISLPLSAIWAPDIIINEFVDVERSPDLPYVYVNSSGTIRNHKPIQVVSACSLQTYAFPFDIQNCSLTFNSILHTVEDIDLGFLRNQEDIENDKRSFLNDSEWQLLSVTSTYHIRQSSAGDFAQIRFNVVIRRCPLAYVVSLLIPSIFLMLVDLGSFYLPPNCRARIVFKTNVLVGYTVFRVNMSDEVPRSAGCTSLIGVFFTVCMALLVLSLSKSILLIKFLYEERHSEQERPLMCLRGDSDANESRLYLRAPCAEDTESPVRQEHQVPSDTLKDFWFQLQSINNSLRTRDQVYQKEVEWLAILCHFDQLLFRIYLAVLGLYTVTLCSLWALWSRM
# Assay: Rat 5-hydroxytryptamine 3 receptor (5-HT3) antagonist
# Format: functional
row,SMILES,Ki
1,CCN1CCN(c2nc3ccccc3c3c2cc(OC)c2ccccc23)CC1,224 nM
2,COc1cc2c(SCCN(C)C)nc3ccccc3c2c2ccccc12,10000 nM
3,CN1CCN(c2nc3ccccc3c3c2CCCC3)CC1,0.0977 nM
4,c1ccc2c(c1)ccc1c(N3CCNCC3)nc3ccccc3c12,132 nM
5,CN1CCN(c2nc3ccccc3c3c2CSCC3)CC1,0.398 nM
6,CCc1c(C)c(N2CCN(C)CC2)nc2ccccc12,0.537 nM
7,CN(C)CCSc1nc2ccccc2c2c1ccc1ccccc12,10000 nM
8,CN(C)CCSc1nc2ccccc2c2c1COc1ccccc1-2,10000 nM
9,CN1CCN(c2nc3ccccc3c3c2CN(C)CC3)CC1,3.16 nM
10,CN1CCN(c2nc3ccccc3c3c2CCC3)CC1,0.0708 nM
11,CN(C)CCSc1nc2ccccc2c2c1CCc1ccccc1-2,10000 nM
12,c1ccc2c3c(c(N4CCNCC4)nc2c1)CCCC3,0.1 nM
